Assay results from paper PMC12040169 (PLOS Biology, 2025).

Legend:
[1] = test system: T1, CTL2-GFP (C. trachomatis L2/434/Bu, GFP-expressing); assay: microbe, parasite or virus in culture; design: Intracellular C. trachomatis growth in HeLa cells, bulk GFP fluorescence relative to DMSO; details: Chlamydia trachomatis, HeLa, 28.5 h; bulk GFP, mean of 2; read-out: % of control remaining
T1 construct: L2/434/Bu, GFP-expressing
Procedure: MICs were calculated as described above.

[2] = in vitro; design: Viability of infected HeLa host cells, resazurin conversion, bulk resorufin fluorescence relative to DMSO; details: human, hela cells; bulk resorufin, mean of 2
[3] = test system: T2, C. trachomatis L2/434/Bu expressing GFP (CTL2-GFP); assay: microbe, parasite or virus in culture; design: C. trachomatis total inclusion area by high-content imaging, normalised to DMSO; details: Chlamydia trachomatis, HeLa, 28.5 h; total inclusion area; read-out: % of control remaining
T2 construct: L2/434/Bu GFP intracellular growth in HeLa cells
How it was run: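 After bulk GFP and resorufin reads, fixed cells were Hoechst-stained and imaged to count chlamydial inclusions and host nuclei. Total inclusion area and number tracked bacterial growth, and nuclei number tracked host viability. MICs were derived, and 36,785 drug-like molecules were screened this way.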

[4] = in vitro; details: human, hela cells, % viability

CCc1nnc(NS(=O)(=O)c2ccc(N/C=C3\C(=O)N(c4ccc(C)cc4)N=C3C)cc2)s1 [CBK262395]
activity at 1 µM [1]: 87% | activity at 5 µM [1]: 17.9% | activity at 10 µM [1]: 18.6% | viability at 28.5 h, 1 µM [2]: 96% | viability at 28.5 h, 5 µM [2]: 101% | viability at 28.5 h, 10 µM [2]: 91.7% | activity at 1 µM [3]: 116% | activity at 5 µM [3]: 36.9% | activity at 10 µM [3]: 35% | viability at 28.5 h, 10 µM [4]: 100%

O=[N+]([O-])c1ccc2[nH]c3c(c2c1)CCCC3NC1CCN(CCc2ccccc2)CC1 (stereo not drawn) [CBK262874]
activity at 1 µM [1]: 58.5% | activity at 5 µM [1]: 25.9% | activity at 10 µM [1]: 16.1% | viability at 28.5 h, 1 µM [2]: 91.5% | viability at 28.5 h, 5 µM [2]: 84.8% | viability at 28.5 h, 10 µM [2]: 76.1% | activity at 1 µM [3]: 60.6% | activity at 5 µM [3]: 15.1% | activity at 10 µM [3]: 3.02% | viability at 28.5 h, 10 µM [4]: 77.1%

O=C(N/N=C/c1ccc(Sc2cccc3cccnc23)o1)c1cccc(F)c1 [CBK263263]
activity at 1 µM [1]: 12% | activity at 5 µM [1]: 3.14% | activity at 10 µM [1]: 0% | viability at 28.5 h, 1 µM [2]: 101% | viability at 28.5 h, 5 µM [2]: 99.9% | viability at 28.5 h, 10 µM [2]: 108% | activity at 1 µM [3]: 21% | activity at 5 µM [3]: 4.03% | activity at 10 µM [3]: 0.368% | viability at 28.5 h, 10 µM [4]: 87.9%

Cc1cc(NS(=O)(=O)c2ccc(Nc3nc(-c4ccccn4)cs3)cc2)no1 [CBK263302B]
activity at 1 µM [1]: 105% | activity at 5 µM [1]: 88.6% | activity at 10 µM [1]: 49.5% | viability at 28.5 h, 1 µM [2]: 90.8% | viability at 28.5 h, 5 µM [2]: 93.6% | viability at 28.5 h, 10 µM [2]: 99.8% | activity at 1 µM [3]: 76.5% | activity at 5 µM [3]: 93.3% | activity at 10 µM [3]: 56.4% | viability at 28.5 h, 10 µM [4]: 93.1%

Cc1noc(NS(=O)(=O)c2ccc(NC(=O)COc3ccccc3Br)cc2)c1C [CBK263918]
activity at 1 µM [1]: 97.7% | activity at 5 µM [1]: 57.6% | activity at 10 µM [1]: 25.5% | viability at 28.5 h, 1 µM [2]: 96.5% | viability at 28.5 h, 5 µM [2]: 96.5% | viability at 28.5 h, 10 µM [2]: 95.3% | activity at 1 µM [3]: 91.6% | activity at 5 µM [3]: 88.5% | activity at 10 µM [3]: 31% | viability at 28.5 h, 10 µM [4]: 89.4%

Cc1c(OCc2cnn(-c3ccccc3)c2)ccc(-c2n[nH]c(C(F)(F)F)c2-c2ccccc2)c1O [CBK264962]
activity at 1 µM [1]: 89.8% | activity at 5 µM [1]: 73.9% | activity at 10 µM [1]: 49.7% | viability at 28.5 h, 1 µM [2]: 109% | viability at 28.5 h, 5 µM [2]: 90.9% | viability at 28.5 h, 10 µM [2]: 97% | activity at 1 µM [3]: 82.3% | activity at 5 µM [3]: 57.5% | activity at 10 µM [3]: 20.9% | viability at 28.5 h, 10 µM [4]: 104%

CC(C)(CNS(=O)(=O)c1ccc(F)cc1)CNS(=O)(=O)c1ccc(F)cc1 [CBK265455]
activity at 1 µM [1]: 79.4% | activity at 5 µM [1]: 13.3% | activity at 10 µM [1]: 0% | viability at 28.5 h, 1 µM [2]: 112% | viability at 28.5 h, 5 µM [2]: 111% | viability at 28.5 h, 10 µM [2]: 116% | activity at 1 µM [3]: 80.8% | activity at 5 µM [3]: 21.4% | activity at 10 µM [3]: 1.74% | viability at 28.5 h, 10 µM [4]: 111%

Cc1ccc2nsnc2c1S(=O)(=O)Nc1cccc2cccnc12 [CBK267051]
activity at 1 µM [1]: 108% | activity at 5 µM [1]: 79.7% | activity at 10 µM [1]: 47.8% | viability at 28.5 h, 1 µM [2]: 76.3% | viability at 28.5 h, 5 µM [2]: 60.6% | viability at 28.5 h, 10 µM [2]: 60.9% | activity at 1 µM [3]: 87.7% | activity at 5 µM [3]: 88.5% | activity at 10 µM [3]: 34.4% | viability at 28.5 h, 10 µM [4]: 46.9%

O=C(CSCc1c(F)cccc1Cl)Nc1ccc(S(=O)(=O)N2CCCCC2)cc1 [CBK268034]
activity at 1 µM [1]: 82.4% | activity at 5 µM [1]: 35.6% | activity at 10 µM [1]: 27.1% | viability at 28.5 h, 1 µM [2]: 91.9% | viability at 28.5 h, 5 µM [2]: 104% | viability at 28.5 h, 10 µM [2]: 101% | activity at 1 µM [3]: 90.3% | activity at 5 µM [3]: 35.6% | activity at 10 µM [3]: 13.2% | viability at 28.5 h, 10 µM [4]: 90.4%

O=C(Nc1ccc(S(=O)(=O)Nc2ncccn2)cc1)c1ccc2c(c1)OCCO2 [CBK268132]
activity at 1 µM [1]: 135% | activity at 5 µM [1]: 76.4% | activity at 10 µM [1]: 55.4% | viability at 28.5 h, 1 µM [2]: 84% | viability at 28.5 h, 5 µM [2]: 94.2% | viability at 28.5 h, 10 µM [2]: 95.2% | activity at 1 µM [3]: 89.9% | activity at 5 µM [3]: 82.3% | activity at 10 µM [3]: 42.6% | viability at 28.5 h, 10 µM [4]: 96.7%

Cc1cc(NS(=O)(=O)c2ccc(NC(=S)NC(=O)C(C)(C)C)cc2)no1 [CBK268877]
activity at 1 µM [1]: 123% | activity at 5 µM [1]: 78.8% | activity at 10 µM [1]: 33.7% | viability at 28.5 h, 1 µM [2]: 93.4% | viability at 28.5 h, 5 µM [2]: 96.5% | viability at 28.5 h, 10 µM [2]: 99.1% | activity at 1 µM [3]: 74.7% | activity at 5 µM [3]: 64% | activity at 10 µM [3]: 35.4% | viability at 28.5 h, 10 µM [4]: 95.7%

COc1ccc2[nH]cc(CCNC(=O)c3ccc([N+](=O)[O-])c(C)c3)c2c1 [CBK269426]
activity at 1 µM [1]: 149% | activity at 5 µM [1]: 100% | activity at 10 µM [1]: 62.1% | viability at 28.5 h, 1 µM [2]: 85.4% | viability at 28.5 h, 5 µM [2]: 90.5% | viability at 28.5 h, 10 µM [2]: 84.5% | activity at 1 µM [3]: 140% | activity at 5 µM [3]: 55.8% | activity at 10 µM [3]: 21.5% | viability at 28.5 h, 10 µM [4]: 100%

O=S(=O)(Nc1nccs1)c1ccc(Nc2ncnc3ccccc23)cc1 [CBK269487C]
activity at 1 µM [1]: 141% | activity at 5 µM [1]: 72.9% | activity at 10 µM [1]: 35% | viability at 28.5 h, 1 µM [2]: 93.3% | viability at 28.5 h, 5 µM [2]: 99% | viability at 28.5 h, 10 µM [2]: 86.3% | activity at 1 µM [3]: 140% | activity at 5 µM [3]: 53.6% | activity at 10 µM [3]: 28.6% | viability at 28.5 h, 10 µM [4]: 93.8%

O=C(Nc1nccs1)c1cc(C2CCN(C(=O)CC3CCCCC3)C2)nc2ccccc12 (stereo not drawn) [CBK285586]
activity at 1 µM [1]: 134% | activity at 5 µM [1]: 122% | activity at 10 µM [1]: 35.7% | viability at 28.5 h, 1 µM [2]: 92.6% | viability at 28.5 h, 5 µM [2]: 93% | viability at 28.5 h, 10 µM [2]: 93.3% | activity at 1 µM [3]: 115% | activity at 5 µM [3]: 119% | activity at 10 µM [3]: 48.9% | viability at 28.5 h, 10 µM [4]: 116%

COc1cccc(C(=O)N2CCC(Cc3ccc(-c4cccc(C)c4)cc3)(C(N)=O)CC2)c1 [CBK285779]
activity at 1 µM [1]: 119% | activity at 5 µM [1]: 104% | activity at 10 µM [1]: 49.9% | viability at 28.5 h, 1 µM [2]: 96.4% | viability at 28.5 h, 5 µM [2]: 98.8% | viability at 28.5 h, 10 µM [2]: 90.2% | activity at 1 µM [3]: 113% | activity at 5 µM [3]: 114% | activity at 10 µM [3]: 62.9% | viability at 28.5 h, 10 µM [4]: 115%

Cc1cc2cc(C(=O)N3CCC(c4c(C(=O)NC(C)C)sc5ccccc45)C3)ccc2o1 (stereo not drawn) [CBK285873]
activity at 1 µM [1]: 148% | activity at 5 µM [1]: 48.7% | activity at 10 µM [1]: 31.6% | viability at 28.5 h, 1 µM [2]: 90% | viability at 28.5 h, 5 µM [2]: 97.6% | viability at 28.5 h, 10 µM [2]: 96.2% | activity at 1 µM [3]: 150% | activity at 5 µM [3]: 85.1% | activity at 10 µM [3]: 51.5% | viability at 28.5 h, 10 µM [4]: 87.1%

O=C(c1ccc(-c2ccc(F)cc2)o1)N1C[C@H]2CC[C@](O)(c3ccc(F)cc3)[C@H]2C1 [CBK286415]
activity at 1 µM [1]: 6.79% | activity at 5 µM [1]: 7.93% | activity at 10 µM [1]: 15.1% | viability at 28.5 h, 1 µM [2]: 91.9% | viability at 28.5 h, 5 µM [2]: 86.5% | viability at 28.5 h, 10 µM [2]: 91.6% | activity at 1 µM [3]: 0.419% | activity at 5 µM [3]: 0.168% | activity at 10 µM [3]: 0.106% | viability at 28.5 h, 10 µM [4]: 94.1%

Cc1ccc(N2C(=O)c3[nH]nc(C)c3C2c2ccc(O)cc2)cc1 (stereo not drawn) [CBK287915]
activity at 1 µM [1]: 108% | activity at 5 µM [1]: 89.5% | activity at 10 µM [1]: 54.1% | viability at 28.5 h, 1 µM [2]: 98% | viability at 28.5 h, 5 µM [2]: 107% | viability at 28.5 h, 10 µM [2]: 106% | activity at 1 µM [3]: 111% | activity at 5 µM [3]: 93.4% | activity at 10 µM [3]: 54.6% | viability at 28.5 h, 10 µM [4]: 94.7%
